In ChEMBL document CHEMBL1158872, “Four new bioactive polybrominated diphenyl ethers of the sponge Dysidea herbacea from West Sumatra, Indonesia” (J Nat Prod, 1997):
Values after ≈ are worked out from the molar mass of the structure shown. Active and inactive are the calls of the source. The calls are words filed in the database; no cut-off is given here.

Columns and labels:
Cladosporium cucumerinum [1] = experiment: Antimicrobial activity against Cladosporium cucumerinum at 50 nmol after 2 days by TLC based bioautography method; assay type: functional
[2] = Toxicity against Artemia salina; assay type: organism-based; details: in vivo
Cladosporium cucumerinum [3] = experiment: Antimicrobial activity against Cladosporium cucumerinum at 25 nmol after 2 days by TLC based bioautography method; assay type: functional
Escherichia coli = experiment: Antimicrobial activity against Escherichia coli; assay type: functional, organism-based

SMILES | inhibition zone (IZ) (Cladosporium cucumerinum [1]) [mm] | LC50 [2] [µg/mL] | inhibition zone (IZ) (Cladosporium cucumerinum [3]) [mm] | Activity (Escherichia coli)
Oc1c(Br)cc(Br)cc1Oc1ccc(Br)cc1Br | 3.5 | 8.66 (≈ 17.3 µM) | 1.5 | inactive
Oc1c(Br)c(Br)c(Br)c(Br)c1Oc1ccccc1Br | 14 | 0.96 (≈ 1.65 µM) | 7 | inactive
Oc1cc(Br)c(Br)c(Br)c1Oc1ccccc1Br | 13 | 3.3 (≈ 6.58 µM) | 8 | inactive
Oc1c(Br)c(Br)c(Br)c(Br)c1Oc1ccc(Br)cc1Br | 8 | 0.94 (≈ 1.43 µM) | 5 | inactive
COc1c(Br)cc(Br)c(Br)c1Oc1ccccc1Br |  | 26.2 (≈ 50.9 µM) |  | inactive
